Active and inactive are the calls of the source.
How the values were obtained:
Hexokinase-1 = Hexokinase-1 (Homo sapiens, UniProt P19367); assay: SAR analysis of small molecule inhibitors of hexokinase domain containing I (HKDC1) in the hexokinase 1 selectivity assay. [Related pubchem assays (depositor defined):AID493160, AID493190]; type: functional
Hexokinase HKDC1 = biological target: T1, Hexokinase HKDC1 (Homo sapiens, UniProt Q2TB90); assay: SAR analysis of small molecule inhibitors of hexokinase domain containing I (HKDC1). [Related pubchem assays (depositor defined):AID493160, AID493190]; type: functional
T1 sequence (Q2TB90 whole entry): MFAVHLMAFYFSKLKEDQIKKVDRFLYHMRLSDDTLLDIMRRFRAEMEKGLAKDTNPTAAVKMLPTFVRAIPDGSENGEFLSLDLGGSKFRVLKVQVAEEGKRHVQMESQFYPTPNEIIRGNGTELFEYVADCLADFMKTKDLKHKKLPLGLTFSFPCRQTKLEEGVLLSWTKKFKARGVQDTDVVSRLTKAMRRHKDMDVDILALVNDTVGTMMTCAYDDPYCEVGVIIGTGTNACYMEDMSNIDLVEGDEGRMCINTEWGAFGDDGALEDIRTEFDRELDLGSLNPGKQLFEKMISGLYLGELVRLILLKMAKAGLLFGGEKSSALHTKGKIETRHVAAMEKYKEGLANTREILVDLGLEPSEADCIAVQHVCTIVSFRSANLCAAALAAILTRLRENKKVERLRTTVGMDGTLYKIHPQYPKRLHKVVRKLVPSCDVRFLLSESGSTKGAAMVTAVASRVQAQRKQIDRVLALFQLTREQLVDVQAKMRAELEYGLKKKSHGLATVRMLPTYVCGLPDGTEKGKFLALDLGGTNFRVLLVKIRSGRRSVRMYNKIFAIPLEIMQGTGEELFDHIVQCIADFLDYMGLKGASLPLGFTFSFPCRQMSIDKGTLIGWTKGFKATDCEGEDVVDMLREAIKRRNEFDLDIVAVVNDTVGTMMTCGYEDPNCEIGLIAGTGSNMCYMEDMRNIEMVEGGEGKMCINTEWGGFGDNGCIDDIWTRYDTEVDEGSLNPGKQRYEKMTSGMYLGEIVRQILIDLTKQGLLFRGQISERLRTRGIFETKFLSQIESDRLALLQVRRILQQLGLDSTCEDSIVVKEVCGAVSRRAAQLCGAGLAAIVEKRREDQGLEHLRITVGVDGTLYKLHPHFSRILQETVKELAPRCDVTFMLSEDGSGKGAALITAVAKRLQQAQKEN

DNA topoisomerase = DNA topoisomerase (Yersinia pestis, UniProt A0A2S9PM60); assay: Y. pestis Topo-I inhibitors, cleavage product readout, dose response, biochemical, cherry-pick (AID 588525)
[1] = biological target: Delta-type opioid receptor (Homo sapiens, UniProt P41143); assay: Counterscreen for agonists of heterodimerization of the mu 1 (OPRM1) and delta 1 (OPRD1) opioid receptors: Luminescence-based cell-based high throughput dose response assay to identify agonists of OPRD1 homodimerization. [Related pubchem assays (depositor defined):AID504326, AID504355, AID504692, AID504904, AID504905]; type: functional
HEK293 [2] = assay: cells; type: functional, cell-based; conditions: Homo sapiens
HEK293 [3] = assay: cells; type: functional, cell-based; conditions: Homo sapiens; remark: listed apart in the source
HEK293 [4] = assay: NOD2 signaling inhibitors in MDP-stimulated cells, cell-based, uHTS, luminescence (AID 2001); type: functional; conditions: Homo sapiens
HEK293 [5] = assay: NOD1 signaling inhibitors, primary screen, cell-based, luminescence, uHTS (AID 1578); type: functional; conditions: Homo sapiens
[6] = biological target: 5-hydroxytryptamine receptor 5A (Homo sapiens, UniProt P47898); assay: Counterscreen for agonists of OPRM1-OPRD1 heterodimerization: luminescence-based cell-based high throughput dose response assay to identify agonists of 5-hydroxytryptamine (serotonin) 5A receptor (HTR5A). [Related pubchem assays (depositor defined):AID504326, AID504355, AID504692, AID504904, AID504905]; type: functional
HEK293 [7] = assay: cells; type: functional, cell-based; conditions: Homo sapiens; remark: listed apart in the source
[8] = biological target: T2, Short transient receptor potential channel 4 (Mus musculus, UniProt Q9QUQ5); assay: mouse TRPC4 channel inhibitors, dose response, cell-based, HEK293 TRPC4/mu-opioid, Fluo-4 calcium (AID 434942); type: functional;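 note: potency of inhibitors blocking the TRPC4 calcium response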
T2 sequence (Q9QUQ5 whole entry): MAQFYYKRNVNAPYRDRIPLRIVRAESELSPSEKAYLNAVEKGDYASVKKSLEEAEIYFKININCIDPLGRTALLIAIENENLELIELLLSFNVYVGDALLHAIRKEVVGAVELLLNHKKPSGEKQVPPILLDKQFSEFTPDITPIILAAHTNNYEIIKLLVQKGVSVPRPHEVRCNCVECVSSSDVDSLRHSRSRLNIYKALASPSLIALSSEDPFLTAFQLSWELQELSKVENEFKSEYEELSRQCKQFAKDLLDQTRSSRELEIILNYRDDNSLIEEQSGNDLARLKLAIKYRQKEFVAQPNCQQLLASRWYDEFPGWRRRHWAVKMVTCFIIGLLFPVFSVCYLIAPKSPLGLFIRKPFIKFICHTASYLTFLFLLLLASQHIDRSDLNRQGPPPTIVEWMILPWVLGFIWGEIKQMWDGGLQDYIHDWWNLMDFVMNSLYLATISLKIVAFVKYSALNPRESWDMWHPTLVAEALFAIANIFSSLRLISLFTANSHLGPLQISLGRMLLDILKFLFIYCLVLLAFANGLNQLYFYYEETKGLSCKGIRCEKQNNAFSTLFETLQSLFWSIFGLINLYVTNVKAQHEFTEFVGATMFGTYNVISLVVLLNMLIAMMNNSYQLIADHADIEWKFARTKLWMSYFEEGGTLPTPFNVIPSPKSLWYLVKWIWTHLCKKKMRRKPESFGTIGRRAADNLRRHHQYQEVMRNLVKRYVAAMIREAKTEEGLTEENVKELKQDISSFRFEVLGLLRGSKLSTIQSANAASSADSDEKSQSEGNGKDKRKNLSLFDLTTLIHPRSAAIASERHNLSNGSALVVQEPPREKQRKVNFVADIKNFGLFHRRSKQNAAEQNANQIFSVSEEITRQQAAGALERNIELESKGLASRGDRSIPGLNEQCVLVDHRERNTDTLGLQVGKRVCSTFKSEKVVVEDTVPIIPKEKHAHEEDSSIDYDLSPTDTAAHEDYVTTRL

[9] = biological target: Nucleotide-binding oligomerization domain-containing protein 2 (Homo sapiens, UniProt Q9HC29); assay: NOD2 signaling inhibitors, cell-based, luminescence, uHTS, HEK293 (AID 1566); type: functional
Mu-type opioid receptor = Mu-type opioid receptor (Homo sapiens, UniProt P35372); assay: Counterscreen for agonists of heterodimerization of the mu 1 (OPRM1) and delta 1 (OPRD1) opioid receptors: Luminescence-based cell-based high throughput dose response assay to identify agonists of OPRM1 homodimerization.; type: functional;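 note: U2OS cells expressing OPRM1 and beta-arrestin as split beta-galactosidase partners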
[10] = biological target: Intestinal-type alkaline phosphatase (Mus musculus, UniProt P24822); assay: PubChem AID 488874; type: functional
[11] = biological target: T3, Intestinal-type alkaline phosphatase (Homo sapiens, UniProt P09923); assay: human intestinal alkaline phosphatase activators, dose response, biochemical, luminescence, uHTS hits (AID 463120); type: functional
[12] = biological target: T4, Alkaline phosphatase, tissue-nonspecific isozyme (Homo sapiens, UniProt P05186); assay: TNAP enzyme activators, dose response, selectivity assay for human IAP activator project, biochemical, TNAP isozyme, human IAP uHTS hits (AID 488886); type: functional;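 note: potency of compounds raising TNAP activity as a selectivity check on IAP activators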
T4 sequence (P05186 whole entry): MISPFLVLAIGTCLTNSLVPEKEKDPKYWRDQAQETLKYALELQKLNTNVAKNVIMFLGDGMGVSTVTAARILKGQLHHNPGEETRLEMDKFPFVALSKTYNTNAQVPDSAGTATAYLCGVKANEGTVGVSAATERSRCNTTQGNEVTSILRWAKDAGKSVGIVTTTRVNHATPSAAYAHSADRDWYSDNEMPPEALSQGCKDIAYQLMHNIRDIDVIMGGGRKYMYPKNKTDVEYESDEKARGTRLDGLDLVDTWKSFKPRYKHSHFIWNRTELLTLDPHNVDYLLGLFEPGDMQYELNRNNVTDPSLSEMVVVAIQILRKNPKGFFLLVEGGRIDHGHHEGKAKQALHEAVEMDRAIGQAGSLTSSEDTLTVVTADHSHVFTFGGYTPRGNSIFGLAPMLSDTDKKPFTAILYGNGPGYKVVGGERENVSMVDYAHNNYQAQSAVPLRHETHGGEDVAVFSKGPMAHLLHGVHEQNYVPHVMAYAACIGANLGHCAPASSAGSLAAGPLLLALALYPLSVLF

[13] = biological target: T3, Intestinal-type alkaline phosphatase; assay: human IAP activators, dose response, biochemical, luminescent, uHTS hits, set 2 (AID 488817); type: functional;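 note: potency of activators that raise enzyme activity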

Sequence of Hexokinase-1 (P19367 whole entry, the tested form may be a part): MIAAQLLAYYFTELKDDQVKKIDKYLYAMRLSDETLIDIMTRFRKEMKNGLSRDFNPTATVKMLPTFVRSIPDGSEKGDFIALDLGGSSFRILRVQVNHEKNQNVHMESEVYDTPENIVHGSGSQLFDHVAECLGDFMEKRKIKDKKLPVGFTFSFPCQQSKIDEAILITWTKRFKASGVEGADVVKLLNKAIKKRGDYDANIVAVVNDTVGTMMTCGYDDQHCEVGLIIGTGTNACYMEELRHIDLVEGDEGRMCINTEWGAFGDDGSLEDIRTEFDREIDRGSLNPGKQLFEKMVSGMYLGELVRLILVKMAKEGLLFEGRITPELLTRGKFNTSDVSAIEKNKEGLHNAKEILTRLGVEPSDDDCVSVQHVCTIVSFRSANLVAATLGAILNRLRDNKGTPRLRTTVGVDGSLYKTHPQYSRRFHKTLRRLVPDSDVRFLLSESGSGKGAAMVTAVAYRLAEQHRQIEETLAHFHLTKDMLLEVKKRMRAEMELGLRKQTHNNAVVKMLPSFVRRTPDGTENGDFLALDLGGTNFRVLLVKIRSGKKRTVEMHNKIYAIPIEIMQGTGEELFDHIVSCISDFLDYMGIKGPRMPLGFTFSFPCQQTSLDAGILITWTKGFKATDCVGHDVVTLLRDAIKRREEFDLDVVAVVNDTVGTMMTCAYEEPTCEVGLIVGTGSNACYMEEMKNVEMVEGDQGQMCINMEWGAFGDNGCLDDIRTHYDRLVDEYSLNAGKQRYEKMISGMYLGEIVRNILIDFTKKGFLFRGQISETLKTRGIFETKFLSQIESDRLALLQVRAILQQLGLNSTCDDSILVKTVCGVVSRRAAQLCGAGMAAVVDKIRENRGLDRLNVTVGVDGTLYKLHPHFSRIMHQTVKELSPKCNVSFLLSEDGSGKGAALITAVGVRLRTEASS
T3 sequence (P09923 whole entry): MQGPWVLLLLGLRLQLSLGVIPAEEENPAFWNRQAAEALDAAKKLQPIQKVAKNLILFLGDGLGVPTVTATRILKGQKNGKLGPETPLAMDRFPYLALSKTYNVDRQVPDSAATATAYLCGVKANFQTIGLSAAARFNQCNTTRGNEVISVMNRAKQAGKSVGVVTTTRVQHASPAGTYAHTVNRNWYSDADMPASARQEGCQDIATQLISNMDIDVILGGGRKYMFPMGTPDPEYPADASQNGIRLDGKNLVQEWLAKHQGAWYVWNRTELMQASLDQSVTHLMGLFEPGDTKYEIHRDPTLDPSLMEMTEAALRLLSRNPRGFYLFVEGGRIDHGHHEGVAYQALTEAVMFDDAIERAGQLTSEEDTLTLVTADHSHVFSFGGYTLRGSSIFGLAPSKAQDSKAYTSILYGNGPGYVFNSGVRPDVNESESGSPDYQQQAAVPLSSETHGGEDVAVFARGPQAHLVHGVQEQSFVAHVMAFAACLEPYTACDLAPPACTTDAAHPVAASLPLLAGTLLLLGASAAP
Sequence of Delta-type opioid receptor (P41143 whole entry): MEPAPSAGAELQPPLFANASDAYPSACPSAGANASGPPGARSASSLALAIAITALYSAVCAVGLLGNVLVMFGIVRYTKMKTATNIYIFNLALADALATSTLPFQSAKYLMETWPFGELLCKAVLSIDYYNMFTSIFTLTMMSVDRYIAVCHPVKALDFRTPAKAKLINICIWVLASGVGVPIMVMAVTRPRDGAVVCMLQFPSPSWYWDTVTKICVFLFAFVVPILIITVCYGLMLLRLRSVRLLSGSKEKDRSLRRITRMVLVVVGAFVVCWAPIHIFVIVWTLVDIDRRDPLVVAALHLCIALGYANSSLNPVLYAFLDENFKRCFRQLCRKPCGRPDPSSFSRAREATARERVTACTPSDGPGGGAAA
Sequence of Intestinal-type alkaline phosphatase (Mus musculus, UniProt P24822) (P24822 whole entry): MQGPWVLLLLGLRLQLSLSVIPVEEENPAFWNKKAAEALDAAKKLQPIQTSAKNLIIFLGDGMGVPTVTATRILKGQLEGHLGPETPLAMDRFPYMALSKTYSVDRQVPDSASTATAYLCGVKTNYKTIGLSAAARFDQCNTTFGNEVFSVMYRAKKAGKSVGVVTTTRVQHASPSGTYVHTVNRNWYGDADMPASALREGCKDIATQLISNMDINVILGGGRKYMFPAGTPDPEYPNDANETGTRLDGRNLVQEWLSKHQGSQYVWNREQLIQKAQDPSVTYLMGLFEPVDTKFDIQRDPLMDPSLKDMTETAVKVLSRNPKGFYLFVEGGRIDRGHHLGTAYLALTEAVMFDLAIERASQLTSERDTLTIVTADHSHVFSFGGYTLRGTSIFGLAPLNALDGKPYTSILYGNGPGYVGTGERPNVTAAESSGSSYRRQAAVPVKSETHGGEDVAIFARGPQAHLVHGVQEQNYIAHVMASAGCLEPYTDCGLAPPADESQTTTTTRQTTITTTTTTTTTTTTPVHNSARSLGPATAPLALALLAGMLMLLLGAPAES
Sequence of 5-hydroxytryptamine receptor 5A (P47898 whole entry): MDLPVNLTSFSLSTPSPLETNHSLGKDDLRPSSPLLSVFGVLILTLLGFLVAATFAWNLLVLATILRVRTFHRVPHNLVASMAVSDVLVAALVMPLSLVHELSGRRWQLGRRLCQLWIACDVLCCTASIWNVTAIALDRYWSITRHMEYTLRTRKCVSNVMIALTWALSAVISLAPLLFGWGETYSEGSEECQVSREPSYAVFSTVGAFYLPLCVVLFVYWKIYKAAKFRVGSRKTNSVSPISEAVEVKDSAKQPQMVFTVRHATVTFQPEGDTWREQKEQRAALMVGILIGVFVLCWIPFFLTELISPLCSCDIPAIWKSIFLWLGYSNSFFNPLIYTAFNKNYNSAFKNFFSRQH
Sequence of Nucleotide-binding oligomerization domain-containing protein 2 (Q9HC29 whole entry, the tested form may be a part): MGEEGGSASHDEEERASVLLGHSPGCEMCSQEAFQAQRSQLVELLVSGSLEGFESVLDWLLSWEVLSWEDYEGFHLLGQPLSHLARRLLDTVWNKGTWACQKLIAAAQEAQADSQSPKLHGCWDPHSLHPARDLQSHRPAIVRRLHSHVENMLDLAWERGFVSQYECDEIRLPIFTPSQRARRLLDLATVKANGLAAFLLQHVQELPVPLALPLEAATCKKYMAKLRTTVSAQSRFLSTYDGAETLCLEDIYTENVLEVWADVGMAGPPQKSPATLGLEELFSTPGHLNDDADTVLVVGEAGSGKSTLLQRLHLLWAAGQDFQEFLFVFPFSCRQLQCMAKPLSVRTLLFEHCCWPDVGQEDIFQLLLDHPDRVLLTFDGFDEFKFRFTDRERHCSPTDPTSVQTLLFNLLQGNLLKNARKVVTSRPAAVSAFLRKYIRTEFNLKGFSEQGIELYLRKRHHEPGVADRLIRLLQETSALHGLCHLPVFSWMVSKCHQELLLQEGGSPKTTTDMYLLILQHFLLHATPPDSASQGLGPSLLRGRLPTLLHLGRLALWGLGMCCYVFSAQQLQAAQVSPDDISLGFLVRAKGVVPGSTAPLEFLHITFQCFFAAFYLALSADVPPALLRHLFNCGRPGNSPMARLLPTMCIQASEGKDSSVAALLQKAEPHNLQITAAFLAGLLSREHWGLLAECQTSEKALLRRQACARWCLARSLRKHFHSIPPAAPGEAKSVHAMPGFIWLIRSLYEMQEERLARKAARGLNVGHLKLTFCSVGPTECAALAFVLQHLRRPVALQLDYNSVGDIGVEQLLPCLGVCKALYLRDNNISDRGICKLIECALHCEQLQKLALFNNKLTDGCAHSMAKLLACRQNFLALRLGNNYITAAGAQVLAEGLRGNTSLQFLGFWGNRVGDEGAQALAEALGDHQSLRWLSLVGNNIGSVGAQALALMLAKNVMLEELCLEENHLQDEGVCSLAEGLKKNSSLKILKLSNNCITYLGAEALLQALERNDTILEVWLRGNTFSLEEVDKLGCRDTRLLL
Sequence of DNA topoisomerase (A0A2S9PM60 whole entry): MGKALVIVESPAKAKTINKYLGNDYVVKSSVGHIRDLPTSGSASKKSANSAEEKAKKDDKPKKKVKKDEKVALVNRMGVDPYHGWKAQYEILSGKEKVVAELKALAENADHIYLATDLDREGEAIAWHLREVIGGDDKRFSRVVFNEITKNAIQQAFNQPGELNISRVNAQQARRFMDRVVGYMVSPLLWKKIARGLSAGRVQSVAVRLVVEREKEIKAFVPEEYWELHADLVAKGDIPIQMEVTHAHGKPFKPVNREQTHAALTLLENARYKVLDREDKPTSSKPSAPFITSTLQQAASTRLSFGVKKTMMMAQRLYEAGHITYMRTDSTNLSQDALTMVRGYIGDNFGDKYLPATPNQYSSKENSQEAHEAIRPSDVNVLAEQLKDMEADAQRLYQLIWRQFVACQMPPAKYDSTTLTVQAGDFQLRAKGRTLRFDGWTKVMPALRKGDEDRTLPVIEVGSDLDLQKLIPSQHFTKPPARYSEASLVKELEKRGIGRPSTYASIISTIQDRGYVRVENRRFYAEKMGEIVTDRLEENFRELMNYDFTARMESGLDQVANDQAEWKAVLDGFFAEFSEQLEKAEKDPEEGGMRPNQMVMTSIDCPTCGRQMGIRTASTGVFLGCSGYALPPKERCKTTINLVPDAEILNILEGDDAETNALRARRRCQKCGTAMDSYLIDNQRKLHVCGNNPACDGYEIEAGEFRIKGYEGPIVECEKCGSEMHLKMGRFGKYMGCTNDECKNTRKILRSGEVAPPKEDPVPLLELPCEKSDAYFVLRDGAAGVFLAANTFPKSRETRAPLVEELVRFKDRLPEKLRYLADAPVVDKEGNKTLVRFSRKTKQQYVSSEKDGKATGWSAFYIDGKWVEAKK
Sequence of Mu-type opioid receptor (P35372 whole entry): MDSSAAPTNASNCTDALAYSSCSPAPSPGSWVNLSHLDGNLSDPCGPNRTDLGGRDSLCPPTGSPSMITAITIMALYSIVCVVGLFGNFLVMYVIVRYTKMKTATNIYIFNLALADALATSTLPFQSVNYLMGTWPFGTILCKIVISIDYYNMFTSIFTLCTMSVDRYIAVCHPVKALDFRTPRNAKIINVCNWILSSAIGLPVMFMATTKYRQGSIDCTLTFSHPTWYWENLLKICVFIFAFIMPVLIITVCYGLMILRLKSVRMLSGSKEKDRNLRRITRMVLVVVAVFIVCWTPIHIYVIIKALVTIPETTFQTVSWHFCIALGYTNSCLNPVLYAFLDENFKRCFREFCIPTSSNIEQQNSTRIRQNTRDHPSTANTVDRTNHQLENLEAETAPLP

With `O=c1c2ccccc2nc(/C=C/c2cccc(Cl)c2)n1Cc1ccccc1` the IC50 (Hexokinase-1) was > 80 µM (inactive) and the IC50 (Hexokinase HKDC1) was > 80 µM (inactive).
With `Nc1cc(O)nc(SCC(=O)N2N=C(c3ccc4ccccc4c3)CC2c2ccccc2)n1` (centres undefined) the AC50 (DNA topoisomerase) was 16.1 µM (active).
In the case of `Cc1nc(N2CCN(c3ccccn3)CC2)c2c(C)c(C(=O)N3CCN(c4ccc(F)cc4)CC3)sc2n1`, the EC50 [1] is reported as > 92.4 µM (inactive), the IC50 (HEK293 [2]) is reported as 6.02 µM (active) and the IC50 (HEK293 [3]) is reported as 17.1 µM (active). For the same compound, the IC50 (HEK293 [4]) was 6.95 µM (active), the EC50 (HEK293 [5]) was 6.14 µM (active) and the EC50 [6] was > 92.4 µM (inactive). The IC50 (HEK293 [7]) was > 20 µM (inactive), the EC50 [8] was 1.19 µM (active) and the EC50 [9] was 5.26 µM (active). The EC50 (Mu-type opioid receptor) was 10.8 µM (inactive).
In the case of `O=C(NNC(=S)NCc1ccco1)c1ccccc1Br`, the IC50 [10] is reported as 53.9 µM (active), the EC50 [11] is reported as 9.62 µM (active) and the EC50 [12] is reported as 12 µM (active). The EC50 [13] was 13.8 µM (active).
For `O=c1c2ccccc2nc(/C=C/c2cccnc2)n1Cc1ccccc1Cl`, the IC50 (Hexokinase-1) was > 80 µM (inactive) and the IC50 (Hexokinase HKDC1) was > 80 µM (inactive).

Source: ChEMBL document CHEMBL1201862, “PubChem BioAssay data set” (2004)
